Data as given in US11753410B2, “Hormone receptor modulators for treating metabolic mutagenic and fibrotic conditions and disorders” (priority 2017, dated 2023).
pEC50: −log10 of the molar value.

Assays:
[1] = molecular target: T1, human Farnesoid X receptor ligand-binding domain/Gal4 DNA binding domain chimera (Homo sapiens, UniProt Q96RI1); assay: Cell-based assay of FXR activation (FXR-UAS-bla HEK 293T beta-lactamase reporter); conditions: for Emax: HEK-293T, read-out: Cellular % Efficacy
T1 construct: host or cells: FXR-UAS-bla HEK 293T (CellSensor UAS-bla HEK 293T)
T1 sequence (Q96RI1 262-486 limits assumed): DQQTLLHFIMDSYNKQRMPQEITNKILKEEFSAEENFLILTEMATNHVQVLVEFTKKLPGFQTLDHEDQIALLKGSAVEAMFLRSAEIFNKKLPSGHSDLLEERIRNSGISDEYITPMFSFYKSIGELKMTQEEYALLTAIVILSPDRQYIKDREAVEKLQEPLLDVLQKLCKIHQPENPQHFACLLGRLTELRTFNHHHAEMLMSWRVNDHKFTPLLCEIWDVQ
Method: FXR activation was measured using a cell line and procedure obtained from Life Technologies (Cat #K1691). […] Activation of FXR by bound ligands results in transcriptional activation of the beta-lactamase reporter gene, which is detected via assay of beta-lactamase activity.
Cells are harvested and diluted into assay medium containing phenol red-free DMEM supplemented with 2% Charcoal-stripped FBS, pyruvate, non-essential amino acids. Cells are then transferred to a 384 well assay plate. Test compounds are dissolved in DMSO and a 3-fold serial dilution series is generated, then further diluted into assay medium. Compounds in assay medium are added to cells in the 384 well plate and allowed to incubate 16 h at 37 C in the presence of 5% CO2.
A FRET-based […] (CCF4) is loaded into cells as its acetomethoxy ester. Intracellular esterases liberate free CCF4, a cephalosporin core linking 7-hydroxycoumarin to fluorescein. In the presence of beta-lactamase activity produced in the presence of FXR agonists, cleavage of CCF4 spatially separates the two dyes and disrupts FRET, so that exciting the coumarin at 409 nm now produces a blue fluorescence signal at 447 nm. The change in FRET signal is plotted against the test compound concentration and fit to a 3-parameter logistical equation.

[2] = molecular target: T2, ligand binding domain of human FXR (Homo sapiens, UniProt Q96RI1); assay: biochemical; conditions: for Emax: extent of activation relative to GW4064, read-out: Ligand Binding % Efficacy; for EC50: −log EC50, concentration required to produce 50% activation, FRET 520 nm/495 nm, 1 hour at room temperature, read-out: Ligand Binding pEC50 (converted)
T2 construct: purchased Thermofisher (LanthaScreen) PV4833
T2 sequence (Q96RI1 262-486 limits assumed): T1 sequence (Q96RI1 262-486 limits assumed)
Method: The affinity of FXR ligands for the ligand binding domain of FXR was determined using a commercially available human FXR ligand binding assay (LanthaScreen, Thermofisher Cat #PV4833). […] Binding of FXR ligands to the FXR ligand binding domain promotes binding of the fluorescein-labelled SRC2-2 peptide. This causes a FRET signal between the terbium-labelled anti-GST antibody and the fluorescein-labelled SRC peptide which are both bound to the FXR ligand binding domain.
Test compounds are dissolved in DMSO and a 3-fold serial dilution series is generated, then further diluted into assay buffer. The compounds are mixed with 5 nM GST-tagged FXR ligand binding domain, 5 nM Tb-labelled anti-GST antibody and 500 nM fluorescein-labelled SRC2-2 peptide in a pH7.4 buffer. The reaction is incubated at room temperature for 1 hour, then the FRET signal is measured as the ratio of the 520 nm/495 nm emission following excitation at 340 nm. The change in FRET signal is plotted against the test article concentration and fit to a 3-parameter logistical equation.

SMILES	pEC50 [1]	Emax [1]	Emax [2]	EC50 [2]
O=C(O)c1cc([C@@H]2CCOC2)c2nc(N3C[C@@H]4C[C@H]3C[C@H]4OCc3c(-c4c(Cl)cccc4Cl)cnn3C3CC3)sc2c1 (single isomer, unassigned) [Compound I-50]	7.00	100%	78%	100 nM
O=C(O)c1cc([C@H]2CCOC2)c2nc(N3C[C@@H]4C[C@H]3C[C@H]4OCc3c(-c4c(Cl)cccc4Cl)cnn3C3CC3)sc2c1 (single isomer, unassigned) [Compound I-51]	6.80	100%	96%	251 nM
O=C(O)c1cc([C@H]2CCOC2)c2nc(N3C[C@@H]4C[C@H]3C[C@H]4OCc3c(C4CC4)nnn3-c3c(Cl)cccc3Cl)sc2c1 (single isomer, unassigned) [Compound I-58]	9.00	102%	145%	2 nM
O=C(O)c1cc([C@@H]2CCOC2)c2nc(N3C[C@@H]4C[C@H]3C[C@H]4OCc3c(C4CC4)nnn3-c3c(Cl)cccc3Cl)sc2c1 (single isomer, unassigned) [Compound I-59]	8.60	100%	137%	1.58 nM
O=C(O)c1cc([C@H]2CCOC2)c2nc(N3C[C@@H]4C[C@H]3C[C@H]4OCc3c(-c4c(Cl)cccc4Cl)nnn3C3CC3)sc2c1 (single isomer, unassigned) [Compound I-65]	8.00	108%	136%	25.1 nM
O=C(O)c1cc([C@@H]2CCOC2)c2nc(N3C[C@@H]4C[C@H]3C[C@H]4OCc3c(-c4c(Cl)cccc4Cl)nnn3C3CC3)sc2c1 (single isomer, unassigned) [Compound I-66]	7.80	110%	140%	15.8 nM
O=C(O)c1ccc(N2C[C@@H]3C[C@H]2C[C@H]3OCc2c(C3CC3)cnn2-c2c(Cl)cccc2Cl)cc1 [Compound I-1, 4-[(1S,4S,5R)-5-{[4-cyclopropyl-1-(2,6-dichlorophenyl)-1H-pyrazol-5-yl]methoxy}-2-azabicyclo[2.2.1]heptan-2-yl]benzoic acid]	8.80	110%	121%	6.31 nM
O=C(O)c1ccc(N2C[C@@H]3C[C@H]2C[C@H]3OCc2c(C3CC3)cnn2-c2c(Cl)cccc2Cl)cc1F [Compound I-2, 4-[(1S,4S,5R)-5-{[4-cyclopropyl-1-(2,6-dichlorophenyl)-1H-pyrazol-5-yl]methoxy}-2-azabicyclo[2.2.1]heptan-2-yl]-2-fluorobenzoic acid]	8.70	104%	133%	5.01 nM
O=C(O)c1ccc(N2C[C@@H]3C[C@H]2C[C@H]3OCc2c(C3CC3)cnn2-c2c(F)cccc2F)cc1F [Compound I-10, 4-[(1S,4S,5R)-5-{[4-cyclopropyl-1-(2,6-difluorophenyl)-1H-pyrazol-5-yl]methoxy}-2-azabicyclo[2.2.1]heptan-2-yl]-2-fluorobenzoic acid]	7.50	118%	164%	158 nM
O=C(NS(=O)(=O)C1CCOCC1)c1ccc(N2C[C@@H]3C[C@H]2C[C@H]3OCc2c(C3CC3)cnn2-c2c(Cl)cccc2Cl)cc1 [Compound I-20, 4-[(1S,4S,5R)-5-{[4-cyclopropyl-1-(2,6-dichlorophenyl)-1H-pyrazol-5-yl]methoxy}-2-azabicyclo[2.2.1]heptan-2-yl]-N-(oxane-4-sulfonyl)benzamide]	9.10	102%	147%	3.16 nM
O=C(NS(=O)(=O)C1CCOC1)c1ccc(N2C[C@@H]3C[C@H]2C[C@H]3OCc2c(C3CC3)cnn2-c2c(Cl)cccc2Cl)cc1 (stereo partly drawn) [Compound I-23, 4-((1S,4S,5R)-5-((4-cyclopropyl-1-(2,6-dichlorophenyl)-1H-pyrazol-5-yl)methoxy)-2-azabicyclo[2.2.1]heptan-2-yl)-N-((tetrahydrofuran-3-yl)sulfonyl)benzamide]	8.60	111%	164%	3.98 nM
O=C(NS(=O)(=O)CC1CCOC1)c1ccc(N2C[C@@H]3C[C@H]2C[C@H]3OCc2c(C3CC3)cnn2-c2c(Cl)cccc2Cl)cc1 (stereo partly drawn) [Compound I-24, 4-((1S,4S,5R)-5-((4-cyclopropyl-1-(2,6-dichlorophenyl)-1H-pyrazol-5-yl)methoxy)-2-azabicyclo[2.2.1]heptan-2-yl)-N-(((tetrahydrofuran-3-yl)methyl)sulfonyl)benzamide]	8.60	107%	164%	3.16 nM
C[C@@H]1[C@@H]2C[C@@H](C[C@H]2OCc2c(C3CC3)cnn2-c2c(Cl)cccc2Cl)N1c1ccc(C(=O)NS(=O)(=O)C2CC2)c(F)c1 [Compound I-29, N-(cyclopropanesulfonyl)-4-[(1S,3R,4S,5R)-5-{[4-cyclopropyl-1-(2,6-dichlorophenyl)-1H-pyrazol-5-yl]methoxy}-3-methyl-2-azabicyclo[2.2.1]heptan-2-yl]-2-fluorobenzamide]	–	–	59%	200 nM
O=C(O)c1cc(F)c2nc(N3C[C@@H]4C[C@H]3C[C@H]4OCc3c(C4CC4)cnn3-c3c(Cl)cccc3Cl)sc2c1 [Compound I-30, 2-[(1S,4S,5R)-5-{[4-cyclopropyl-1-(2,6-dichlorophenyl)-1H-pyrazol-5-yl]methoxy}-2-azabicyclo[2.2.1]heptan-2-yl]-4-fluoro-1,3-benzothiazole-6-carboxylic acid]	8.80	106%	151%	15.8 nM
O=C(O)CCc1ccc(N2C[C@@H]3C[C@H]2C[C@H]3OCc2c(C3CC3)cnn2-c2c(F)cccc2F)c(F)c1 [Compound I-35, 3-{4-[(1S,4S,5R)-5-{[4-cyclopropyl-1-(2,6-difluorophenyl)-1H-pyrazol-5-yl]methoxy}-2-azabicyclo[2.2.1]heptan-2-yl]-3-fluorophenyl}propanoic acid]	–	–	152%	631 nM
Cc1cccc(C)c1-n1ncc(C2CC2)c1CO[C@@H]1C[C@@H]2C[C@H]1CN2c1ccc(CCC(=O)O)cc1F [Compound I-36, 3-{4-[(1S,4S,5R)-5-{[4-cyclopropyl-1-(2,6-dimethylphenyl)-1H-pyrazol-5-yl]methoxy}-2-azabicyclo[2.2.1]heptan-2-yl]-3-fluorophenyl}propanoic acid]	–	–	134%	158 nM
Cc1cccc(Cl)c1-n1ncc(C2CC2)c1CO[C@@H]1C[C@@H]2C[C@H]1CN2c1ccc(CCC(=O)O)cc1F [Compound I-37, 3-{4-[(1S,4S,5R)-5-{[1-(2-chloro-6-methylphenyl)-4-cyclopropyl-1H-pyrazol-5-yl]methoxy}-2-azabicyclo[2.2.1]heptan-2-yl]-3-fluorophenyl}propanoic acid]	–	–	176%	39.8 nM
O=C(O)CCc1ccc(N2C[C@@H]3C[C@H]2C[C@H]3OCc2c(C3CC3)cnn2-c2c(F)cccc2Cl)c(F)c1 [Compound I-38, 3-{4-[(1S,4S,5R)-5-{[1-(2-chloro-6-fluorophenyl)-4-cyclopropyl-1H-pyrazol-5-yl]methoxy}-2-azabicyclo[2.2.1]heptan-2-yl]-3-fluorophenyl}propanoic acid]	–	–	185%	158 nM
O=C(O)CCc1ccc(N2C(=O)[C@@H]3C[C@H]2C[C@H]3OCc2c(C3CC3)cnn2-c2c(Cl)cccc2Cl)c(F)c1 [Compound I-39, 3-{4-[(1S,4R,5R)-5-{[4-cyclopropyl-1-(2,6-dichlorophenyl)-1H-pyrazol-5-yl]methoxy}-3-oxo-2-azabicyclo[2.2.1]heptan-2-yl]-3-fluorophenyl}propanoic acid]	–	–	136%	–
O=C(O)C1CC(c2ccc(N3C[C@@H]4C[C@H]3C[C@H]4OCc3c(C4CC4)cnn3-c3c(Cl)cccc3Cl)c(F)c2)C1 (stereo partly drawn) [Compound I-40, 3-{4-[(1S,4S,5R)-5-{[4-cyclopropyl-1-(2,6-dichlorophenyl)-1H-pyrazol-5-yl]methoxy}-2-azabicyclo[2.2.1]heptan-2-yl]-3-fluorophenyl}cyclobutane-1-carboxylic acid]	–	–	156%	31.6 nM
